Test results published in ChEMBL document CHEMBL5233225, “Para-sulfonatocalix[n]arene-based biomaterials: Recent progress in pharmaceutical and biological applications” (Eur J Med Chem, 2020).

Experiments:
[1] = Haemolytic activity in human RBC measured after 30 mins by spectrophotometric analysis; format: toxicity, cell-based, Erythrocyte; details: red blood cells (RBC), read-out: Activity
[2] = test system: K562; test: Photodynamic antitumor activity against human K562 cells assessed as mortality rate preincubated for 24 hrs followed by irradiation by UV-VIS spectrophotometer; format: functional

O=S(=O)(O)c1cc2c(O)c(c1)Cc1cc(S(=O)(=O)O)cc(c1O)Cc1cc(S(=O)(=O)O)cc(c1O)Cc1cc(S(=O)(=O)O)cc(c1O)Cc1cc(S(=O)(=O)O)cc(c1O)Cc1cc(S(=O)(=O)O)cc(c1O)Cc1cc(S(=O)(=O)O)cc(c1O)Cc1cc(S(=O)(=O)O)cc(c1O)C2 gave a hemolysis at 0.5 h [1] of 29% and an Activity [2] of 30%.
Work on O=S(=O)(O)c1cc2c(O)c(c1)Cc1cc(S(=O)(=O)O)cc(c1O)Cc1cc(S(=O)(=O)O)cc(c1O)Cc1cc(S(=O)(=O)O)cc(c1O)Cc1cc(S(=O)(=O)O)cc(c1O)Cc1cc(S(=O)(=O)O)cc(c1O)C2 yielded a hemolysis at 0.5 h [1] of 12% and an Activity [2] of 60%.
